Test [1] has as its target Luciferin 4-monooxygenase (Photinus pyralis, UniProt P08659).
Description: GSK_PKIS: Inhibition of Firefly Luciferase (Data from PubChem: AID 652016) [NIH NCATS]
Test [2] has as its target T1, Coelenterazine h 2-monooxygenase (Renilla reniformis, UniProt P27652).
T1 sequence (P27652 whole entry): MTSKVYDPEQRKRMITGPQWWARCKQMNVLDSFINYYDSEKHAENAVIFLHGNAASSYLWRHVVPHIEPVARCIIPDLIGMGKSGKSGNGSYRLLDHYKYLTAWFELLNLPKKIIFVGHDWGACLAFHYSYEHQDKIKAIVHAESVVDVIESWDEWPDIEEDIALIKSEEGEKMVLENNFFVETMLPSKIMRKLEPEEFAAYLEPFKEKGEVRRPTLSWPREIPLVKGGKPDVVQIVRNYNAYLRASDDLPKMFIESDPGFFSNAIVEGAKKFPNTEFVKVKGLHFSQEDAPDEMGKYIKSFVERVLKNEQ
Description: GSK_PKIS: Inhibition of Sea Pansy Luciferase (Data from PubChem: AID 652015) [NIH NCATS]

A word on the AC50: it is the midpoint of the concentration-response curve, whichever way the signal moves.

Sequence of Luciferin 4-monooxygenase (P08659 whole entry): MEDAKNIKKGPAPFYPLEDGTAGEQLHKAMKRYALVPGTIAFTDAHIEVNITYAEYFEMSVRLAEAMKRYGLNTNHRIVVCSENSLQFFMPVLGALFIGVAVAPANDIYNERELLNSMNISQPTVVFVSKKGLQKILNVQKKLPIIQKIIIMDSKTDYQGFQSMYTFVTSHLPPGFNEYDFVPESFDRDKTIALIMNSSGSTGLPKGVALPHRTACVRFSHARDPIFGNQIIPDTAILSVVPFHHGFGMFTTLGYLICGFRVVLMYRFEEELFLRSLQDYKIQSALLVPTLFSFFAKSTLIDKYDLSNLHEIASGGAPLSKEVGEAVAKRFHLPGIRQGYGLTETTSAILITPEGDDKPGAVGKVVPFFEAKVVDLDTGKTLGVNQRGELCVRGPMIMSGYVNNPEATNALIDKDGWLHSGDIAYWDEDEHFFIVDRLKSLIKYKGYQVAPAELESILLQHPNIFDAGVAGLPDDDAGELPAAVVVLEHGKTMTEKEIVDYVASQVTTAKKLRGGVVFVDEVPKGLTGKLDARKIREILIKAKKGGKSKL

As to `Cn1cc(C=C2C(=O)Nc3cccnc32)c2ccccc21` [GW441756X], the half-maximal activity concentration (AC50) in test [1] (read-out: AC50) is 14.6 µM; in test [2] (read-out: AC50) it was 20.6 µM.
Regarding `COc1cc2ncn(-c3cc(OCCc4ccccc4)c(C(N)=O)s3)c2cc1OC` [GSK-204925A], the AC50 entry in test [1] and in test [2] was “Phenotype: Inactive; Curve_Description: None” each time.
Consider `CS(=O)(=O)Nc1cccc(-c2ccc3c(NC(=O)C4CC4)n[nH]c3c2)c1`, for which the concentration at half-maximal activity (AC50) in test [1] (read-out: AC50) is 20.6 µM; in test [2], “Phenotype: Inactive; Curve_Description: None”.
On to `CCS(=O)(=O)c1ccc(OC)c(Nc2ncc(-c3cccc(-c4ccccc4F)c3)o2)c1` [GW678313X], for which the AC50 entry in test [1] and in test [2] was “Phenotype: Inactive; Curve_Description: None” in each case.
As for `CS(=O)(=O)Nc1ccc(N/C=C2\C(=O)Nc3ccccc32)cc1` [GW278681X], the values for the AC50 in test [1] (read-out: AC50) and in test [2] (read-out: AC50) were 16.3 µM and 23.1 µM, respectively.
As to `CN(C)C(=O)O[C@@H]1CN[C@@H](C#Cc2cc3ncnc(Nc4ccc(OCc5cccc(F)c5)c(Cl)c4)c3s2)C1` [GSK-238063A], the AC50 is 32.6 µM in test [1] (read-out: AC50) and “Phenotype: Inactive; Curve_Description: None” in test [2].
Turning to `Cl.NS(=O)(=O)c1cccc(Nc2cc(-c3ccc(F)cc3)n[nH]2)c1` [GW824645A], the values for the AC50 in test [1] (read-out: AC50) and in test [2] were 11.6 µM and “Phenotype: Inactive; Curve_Description: None”, respectively.
Turning to `COc1cccc(Nc2nccc(-c3cnn4ncccc34)n2)c1` [PYRAZOLOPYRIDAZINE 1], the concentration at half-maximal activity (AC50) entry in test [1] and in test [2] was “Phenotype: Inactive; Curve_Description: None” in each case.
Regarding `CN1CCC(C(=O)Nc2n[nH]c3nnc(-c4ccccc4)cc23)CC1.Cl`, the AC50 result in test [1] and in test [2] was “Phenotype: Inactive; Curve_Description: None” each time.
Consider `COc1cccc(-c2c[nH]c3c(N/N=C/c4ccncc4)ncnc23)c1` [GW814408X], for which the AC50 in test [1] (read-out: AC50) was 5.8 µM; in test [2] it was “Phenotype: Inactive; Curve_Description: None”.
For the compound `Cl.O=C(O[C@H]1CN[C@H](C#Cc2cc3ncnc(Nc4ccc5c(cnn5Cc5ccccc5)c4)c3s2)C1)N1CCOCC1` [GSK-200398A], the values for the concentration at half-maximal activity (AC50) in test [1] (read-out: AC50) and in test [2] were 18.3 µM and “Phenotype: Inactive; Curve_Description: None”, respectively.
Turning to `CC(=O)Nc1cccc(C#Cc2cncnc2Nc2ccc(OCc3cccc(F)c3)c(Cl)c2)c1` [GW703087X], the half-maximal activity concentration (AC50) entry in test [1] and in test [2] was “Phenotype: Inactive; Curve_Description: None” in each case.
Take `Fc1ccc(-c2ncn(CCCN3CCOCC3)c2-c2ccncc2)cc1` [SB-210313]: the concentration at half-maximal activity (AC50) entry in test [1] is given as “Phenotype: Inactive; Curve_Description: None”; in test [2], “Phenotype: Activator; Curve_Description: None”.
With `Nc1nonc1-c1nc2cnccc2n1C1CCCCC1`, the AC50 entry in test [1] and in test [2] was “Phenotype: Inactive; Curve_Description: None” each time.
On to `CC1=C(C(=O)Nc2ccc3[nH]ncc3c2)C(c2ccc(F)cc2)N=C(c2ccc(C(F)(F)F)nc2)N1` (stereo unspecified) [GSK-317354A], for which the AC50 in test [1] (read-out: AC50) is 41.1 µM; in test [2], “Phenotype: Activator; Curve_Description: None”.
`COC(=O)Nc1nc2ccc(Sc3ccc(NC(=O)Nc4cc(C(F)(F)F)ccc4F)cc3)cc2[nH]1.O=S(=O)(O)O` [GW607049C]: the values for the AC50 result in test [1] and in test [2] (read-out: AC50) were “Phenotype: Inactive; Curve_Description: None” and 0.0006 µM, respectively.
As for `O=S(=O)(CCOCc1ccc(-c2ccc3ncnc(Nc4ccc(OCc5cccc(F)c5)c(Cl)c4)c3c2)o1)c1ccccc1` [GW615311X], the AC50 result in test [1] was “Phenotype: Inactive; Curve_Description: None”; in test [2] (read-out: AC50), 46.1 µM.
Consider `CCCN1CCC=C(c2ccc(Nc3nc(Nc4ccccc4C(N)=O)c4cc[nH]c4n3)c(C)c2)C1` [GSK-994854A], for which the results for the AC50 entry in test [1] and in test [2] (read-out: AC50) were “Phenotype: Inactive; Curve_Description: None” and 46.1 µM, respectively.
With `CNC(=O)c1ncccc1Nc1nc(Nc2cc3c(cc2OC)CCCN3C(=O)CN(C)C)nc2[nH]ccc12` [GSK-2220400A], the AC50 result is “Phenotype: Inactive; Curve_Description: None” in test [1] and “Phenotype: Activator; Curve_Description: None” in test [2].
Turning to `COc1cc(Nc2ncc3c(C)nc(-c4cccc(C(F)(F)F)c4)n3n2)cc(OC)c1OC` [GW837331X], the AC50 entry in test [1] and in test [2] was “Phenotype: Inactive; Curve_Description: None” each time.
As to `Cl.O=C(Nc1ccc(Oc2ccc3[nH]c(NC(=O)c4ccccc4)nc3c2)cc1)Nc1cc(C(F)(F)F)ccc1F` [GW709042A], the half-maximal activity concentration (AC50) result in test [1] and in test [2] was “Phenotype: Inactive; Curve_Description: None” throughout.
In the case of `COC(=O)Nc1nc2cc(Oc3cccc(NC(=O)Nc4cc(C(F)(F)F)ccc4F)c3)ccc2[nH]1.Cl` [GW659386A], the AC50 in test [1] (read-out: AC50) was 16.3 µM; in test [2], “Phenotype: Inactive; Curve_Description: None”.
Consider `COC(=O)c1cncc(/C=C/c2c(C)cc(O)cc2C)c1` [GW406731X], for which the concentration at half-maximal activity (AC50) entry in test [1] and in test [2] was “Phenotype: Inactive; Curve_Description: None” in each case.
As to `COc1ccc(CNC(=O)c2ccc(-c3cc(-c4nnc(C)o4)ccc3C)cc2)cc1` [GW701032X], the half-maximal activity concentration (AC50) result in test [1] and in test [2] was “Phenotype: Inactive; Curve_Description: None” each time.
Turning to `CN(C)CCCNc1nccc(-c2c(-c3ccc(F)cc3)nn3cc(C(F)(F)F)ccc23)n1.CS(=O)(=O)O` [GW618013A], the AC50 in test [1] (read-out: AC50) was 41.1 µM; in test [2] it was “Phenotype: Inactive; Curve_Description: None”.
For `CCn1c(-c2nonc2N)nc2cnc(Oc3cccc(NC(=O)c4ccc(N(C)C)cc4)c3)cc21` [GSK-248233A], the AC50 is 1.03 µM in test [1] (read-out: AC50) and “Phenotype: Inactive; Curve_Description: None” in test [2].
`CS(=O)(=O)Nc1ccc(-c2cc(-c3ccccc3)cc(C(N)=O)c2N)cc1` [GSK-586581A]: the half-maximal activity concentration (AC50) result in test [1] and in test [2] was “Phenotype: Inactive; Curve_Description: None” throughout.
Consider `COc1cc2ncn(-c3cc(O[C@H](C)c4ccccc4Cl)c(C(N)=O)s3)c2cc1OC` [GSK-237701A], for which the AC50 entry in test [1] was “Phenotype: Inactive; Curve_Description: None”; in test [2] (read-out: AC50), 3.66 µM.
Take `Cc1cc(O)cc(C)c1/C=C/c1cncc(C(=O)N(C)C)c1` [GW427984X]: the concentration at half-maximal activity (AC50) entry in test [1] and in test [2] was “Phenotype: Inactive; Curve_Description: None” in each case.
Regarding `CN(C)CCOc1ccc(-c2nc(-c3ccncc3)c(-c3ccc4c(c3)CC/C4=N\O)[nH]2)cc1`, the AC50 in test [1] (read-out: AC50) came to 14.6 µM; in test [2] (read-out: AC50), 29.1 µM.
On to `CN1CCC(n2cnc(-c3ccc(F)cc3)c2-c2ccnc(Nc3ccccc3)n2)CC1`, for which the AC50 result in test [1] and in test [2] was “Phenotype: Inactive; Curve_Description: None” in each case.
In the case of `Fc1ccc(-c2ncn(C3CCNCC3)c2-c2ccnc(Oc3ccc(F)c(F)c3)n2)cc1`, the AC50 result in test [1] and in test [2] was “Phenotype: Inactive; Curve_Description: None” each time.
`Nc1ncnc2occ(-c3ccc(NC(=O)Nc4cc(C(F)(F)F)ccc4F)cc3)c12` [GW770249X]: the concentration at half-maximal activity (AC50) result in test [1] and in test [2] was “Phenotype: Inactive; Curve_Description: None” in each case.
For the compound `COc1ccc2[nH]c3c4[nH]c5ccc(OC)cc5c4c4c(c3c2c1)C(=O)NC4=O` [GW296115X], the half-maximal activity concentration (AC50) result in test [1] was “Phenotype: Inactive; Curve_Description: None”; in test [2] (read-out: AC50) it was 25.9 µM.
Turning to `O=C(Nc1n[nH]c2cc(-c3ccccc3)ccc12)C1CC1`, the values for the AC50 in test [1] (read-out: AC50) and in test [2] were 18.3 µM and “Phenotype: Inactive; Curve_Description: None”, respectively.
For the compound `CNC(=O)c1cncc(/C=C/c2ccccc2C)c1` [GW445015X], the AC50 entry in test [1] and in test [2] was “Phenotype: Inactive; Curve_Description: None” in each case.
In the case of `c1ccc(-c2n[nH]cc2-c2ccnc(-c3ccc(OCCn4ccnc4)cc3)c2)nc1` [GW711782X], the AC50 result in test [1] and in test [2] was “Phenotype: Inactive; Curve_Description: None” in each case.
Turning to `CCCN1CCC(Oc2cc(Nc3nc(Nc4cccc(F)c4C(N)=O)c4cc[nH]c4n3)c(OC)cc2Cl)CC1` [GSK-1713088A], the figures for the AC50 in test [1] (read-out: AC50) and in test [2] were 0.291 µM and “Phenotype: Activator; Curve_Description: None”, respectively.
With `c1ccc(Nc2ncc(-c3ccccc3)o2)cc1` [GW549390X], the figures for the AC50 in test [1] (read-out: AC50) and in test [2] were 0.259 µM and “Phenotype: Inactive; Curve_Description: None”, respectively.
Take `COc1cc(Nc2ncc3c(C)nc(-c4cccc(Oc5ccccc5)c4)n3n2)cc(OC)c1OC` [GW861893X]: the AC50 entry in test [1] and in test [2] was “Phenotype: Inactive; Curve_Description: None” throughout.
Take `COC(=O)Nc1nc2ccc(S(=O)(=O)c3ccc(NC(=O)Nc4cc(C(F)(F)F)ccc4F)cc3)cc2[nH]1.Cl` [GW680908A]: the AC50 result in test [1] and in test [2] was “Phenotype: Inactive; Curve_Description: None” in each case.
With `Nc1nccc(-c2c(-c3ccc(F)cc3)nn3cc(C(F)(F)F)ccc23)n1` [GW568326X], the AC50 result in test [1] and in test [2] was “Phenotype: Inactive; Curve_Description: None” throughout.
Consider `Cc1cccc(Nc2ncc(-c3ccccc3)o2)c1` [GW632046X], for which the AC50 in test [1] (read-out: AC50) is 0.58 µM; in test [2] it was “Phenotype: Inactive; Curve_Description: None”.
